This is an account of results in US20100104580A1, “Altered Immunogenic Landscape in HIV-1 Envelope Proteins” (priority 2008, published 2010).

The test system of series [1] is gp 120 from two other HIV-1 strains. Kind of series: Affinity for gp120 of other strains. It is filed as binding. From the text: HIV-1YU2gp120 was produced as described previously in Drosophila S2 cells (Biorn et al., 2004, Biochem. 43:1928-1938; Pancera et al., 2005, J Virol. 79:9954-9969). Cells were spun down and supernatant sterile filtered. Supernatant was purified over an F105-antibody column (NHS-activated Sepharose, Amersham; F 105 antibody coupled according to manufacturer's instructions). […] Supernatant from the hollow fiber bioreactor was purified with an SP-column and bound fractions were then run over a Q-column. Unbound material was concentrated and analysed by SDS-PAGE. The gp120 proteins from HIV-1 SF162 and HIV-192UG037-08 were used in previous inhibitor binding studies (Cocklin et al., 2007, J Virol. 81:3645-3648); HIV-1SF162 gp120 was obtained through NIH AIDS Research and Reference Reagent Program from DAIDS and NIAID, while HIV-192UG037-08 gp120 was a gift as reported in Cocklin et al. (2007, J Virol. 81:3645-3648). The following monoclonal antibodies were obtained through the NIH AIDS Research and Reference Reagent Program: 2G12 from Dr Hermann Katinger; F105 from Dr Marshall Posner and Dr Lisa Cavacini; b12 from Dr Dennis Burton and Carlos Barbas.

In series [2] the target is gp120 binding to both host cell receptors (CD4 and CCR5) (Human immunodeficiency virus type 1 group M subtype B, UniProt P35961). Put plainly: Dual antagonism of gp120 binding to host cell receptors. Also noted: species or system HIV-1. The settings on record: inhibiting gp120 binding to CD4 and CCR5.
A further series addresses T1, gp120YU2 (Human immunodeficiency virus type 1 group M subtype B, UniProt P35961).
T1 construct: for HIV-1 YU2 gp 120 envelope protein; made in house; host or cells: Drosophila S2 cells
It is filed as binding, HIV-1. As to conditions: HNG-156 at the concentrations tested (0.6 μM elsewhere in the source).

In series [3] the test system is interaction between gp120 and four-domain soluble CD4 (4dCD4). The settings on record: cited from earlier work.
The subject of series [4] is interaction between gp120 and 17b. The settings on record: cited from earlier work.
The test system of the next series is SHIV89.6P. The settings on record: cited from earlier work.
For series [5], the system named is M-tropic and T-tropic strains of HIV-1, SIV, FIV. As to conditions: cited from earlier work.
The next series deals with HIV-1 BaL. The settings on record: recombinant CV-N; cited from earlier work.
The conditions of series [6]: female macaques; cited from earlier work.

Experimental for gp120YU2: b12 binding to gp120YU2 was assayed by SPR using a Biacore 3000 instrument. […] Buffer (PBS+0.005% Tween-20) injection and control surface responses were subtracted from the injection of gp120 over b12 and binding sensorgrams were obtained.
Inhibition curves were generated from response at the end of association. b12 was injected at 100 ul/min with 2.5 min. association and 2 min. dissociation and binding curves were generated from responses at the 100th second of dissociation.
100 ng gp120YU2 was adsorbed to wells. […] Bound antibody was detected with species specific secondary antibody-HRP, and read with OPD assay at 450 nm.

Regarding `CC[C@H](C)[C@H](NC(=O)[C@@H](N)CCCNC(=N)N)C(=O)N[C@@H](CC(N)=O)C(=O)N[C@@H](CC(N)=O)C(=O)N[C@H](C(=O)N1C[C@@H](n2cc([C]34[CH]5[CH]6[CH]7[CH]3[Fe]6754389%10[CH]4[CH]3[CH]8[CH]9[CH]4%10)nn2)C[C@H]1C(=O)N[C@@H](Cc1c[nH]c2ccccc12)C(=O)N[C@@H](CO)C(=O)N[C@@H](CCC(=O)O)C(=O)N[C@@H](C)C(=O)N[C@@H](CCSC)C(=O)N[C@@H](CCSC)C(N)=O)[C@@H](C)CC` (stereo partly drawn) [HNG-156, RINNIXWSEAMM, where residue 6 is (2s, 4s)-4-(4-ferrocenyl-1H-1, 2, 3-triazol-1-yl) pyrrolidine-2-carboxylic acid], the “affinity for gp 120 from two other HIV-1 strains” value in [1] was “similarly high affinity”. The dual antagonism function result in series [2] was “dual antagonism function”. Also, the “mAb F105 binding inhibition” value on gp120YU2 is “inhibited to near completion”.

`CC[C@H](C)[C@H](NC(=O)[C@@H](N)CCCNC(=N)N)C(=O)N[C@@H](CC(N)=O)C(=O)N[C@@H](CC(N)=O)C(=O)N[C@H](C(=O)N1C[C@@H](n2cc(-c3cccc4ccccc34)nn2)C[C@H]1C(=O)N[C@@H](Cc1c[nH]c2ccccc12)C(=O)N[C@@H](CO)C(=O)N[C@@H](CCC(=O)O)C(=O)N[C@@H](C)C(=O)N[C@@H](CCSC)C(=O)N[C@@H](CCSC)C(N)=O)[C@@H](C)CC` [HNG-125]: the dual antagonism function entry in [2] is reported as “dual antagonism function”.

`CC[C@H](C)[C@H](NC(=O)[C@@H](N)CCCNC(=N)N)C(=O)N[C@@H](CC(N)=O)C(=O)N[C@@H](CC(N)=O)C(=O)N[C@H](C(=O)N1CCC[C@H]1C(=O)N[C@@H](Cc1c[nH]c2ccccc12)C(=O)N[C@@H](CO)C(=O)N[C@@H](CCC(=O)O)C(=O)N[C@@H](C)C(=O)N[C@@H](CCSC)C(=O)N[C@@H](CCSC)C(=O)O)[C@@H](C)CC` [12p1]: the “inhibition of the gp120-4dCD4 interaction” value in [3] is given as “found to inhibit”. In addition, the “inhibition of the gp120-17b interaction” value in series [4] was “found to inhibit”.

B1: CV-N: 11 kD protein originally isolated from the cyanobacteria Nostoc ellipsosporum (protein)
chain: LGKFSQTCYNSAIQGSVLTSTCERTNGGYNTSSIDLNSVIENVDGSLKWQPSNFIETCRNTQLAGSSELAAECKTRAQQFVSTKINLDDHIANIDGTLKYE
Regarding B1, the “protection against virus challenge” value with SHIV89.6P (gel formulations applied rectally, male macaques) is reported as “protected against challenge”. Besides, the clinically adverse effects in the series with SHIV89.6P (rectal and vaginal macaque in vivo assays) is “no clinically adverse effects”. In addition, the “inactivation of virus strains” value in series [5] is “inactivates a broad range of M-tropic and T-tropic strains”. Moreover, in the series with HIV-1 BaL, the “cytotoxic effects in ectocervical explants” value is “without cytotoxic effects” and the “infection of human ectocervical explants” value is recorded as “blocks HIV-1 BaL infection”. In addition, the “in vivo efficacy, vaginal challenge” value in [6] is “In vivo efficacy has also be shown”.
